Laboratory results: article PMC9320114 (Molecules, 2022)
Where two headings read alike, the source gives them in different places.

Legend:
MurA = MurA (Escherichia coli, UniProt P0A749); experiment: Inhibition of MurA, colorimetric malachite green method; format: biochemical, bacterial; conditions: for remaining activity at 50 µM: 0.25 h, read-out: MurA (RA [%]); for RA (MurA, 50 µM): residual activity at 50 µM, Figure 1; for MurA RA (%): residual activity at 100 µM, Table 1
Experimental: Inhibition of Mur enzymes was monitored with the colorimetric malachite green method, which measured orthophosphate formed during reaction. The mixtures with a final volume of 50 µL contained:
MurA: 50 mM HEPES-NaOH, pH 7.8, 0.005% Triton X-114, 200 µM uridine-diphosphate-N-acetylglucosamine, 100 µM phosphoenolpyruvate, purified MurA, and 50 or 100 µM of each compound tested.
All compounds were soluble in the assay mixtures containing 5% DMSO (v/v). After incubation for 15 min (20 min for DdlB) at 37 °C, the enzyme reaction was terminated by addition of Biomol® reagent (100 µL) and absorbance was measured after 5 min at 650 nm (Synergy™ H4 microplate reader; BioTek Instruments, Inc., BioTek Gen5 Data Analysis Software, version 2.9, Santa Clara, CA, USA). All experiments were performed in duplicate.

[1] = target: human butyrylcholinesterase (hBChE) (Homo sapiens, UniProt P06276); experiment: biochemical; format: biochemical
Experimental: (§1) Enzyme solutions were prepared by diluting the concentrated enzyme stock solutions (4.6 mg/mL in 10 mM MES-NaOH buffer, pH 6.5) in a sodium phosphate-buffered solution (0.1 M, pH 8.0). […] The final organic solvent (DMSO) content was always 1% (v/v). Reactions were initiated by adding the substrate to the enzyme and inhibitor, which were preincubated for 5 min. […] To determine the blank value (b), the enzyme solution was replaced by a phosphate-buffered solution. The initial velocity (v) was calculated from the slope of the linear trend obtained, with each measurement performed in triplicate. The inhibitory potencies were expressed as RA=(vi − b)/(vo − b), where vi is the velocity in the presence of the test compounds and vo is the control velocity in the presence of DMSO. Seven different concentrations of each compound were used for the IC50 measurements. IC50 values were obtained by plotting the residual enzyme activities against the applied inhibitor concentrations, fitting the experimental data to the 4-parameter Hill equation:(1) Y=Bottom+(Top−Bottom)/1+10^((LogIC50−X)×Hill Slope) where X is the logarithm of the inhibitor concentration, and Y is the residual activity. GraphPad Prism 8.2.0 (GraphPad Software, San Diego, CA, USA) was used for the fitting procedure.

[2] = target: T1, murine acetylcholinesterase (mAChE) (Mus musculus, UniProt P21836); experiment: biochemical; format: biochemical; conditions: for mAChE RA (%) / remaining activity at 10 µM / RA (mAChE, 10 µM): residual activity at 10 µM; for remaining activity at 10 µM: read-out: mAChE RA (%); for RA (mAChE, 10 µM): Figure 1
T1 sequence (P21836 32-614): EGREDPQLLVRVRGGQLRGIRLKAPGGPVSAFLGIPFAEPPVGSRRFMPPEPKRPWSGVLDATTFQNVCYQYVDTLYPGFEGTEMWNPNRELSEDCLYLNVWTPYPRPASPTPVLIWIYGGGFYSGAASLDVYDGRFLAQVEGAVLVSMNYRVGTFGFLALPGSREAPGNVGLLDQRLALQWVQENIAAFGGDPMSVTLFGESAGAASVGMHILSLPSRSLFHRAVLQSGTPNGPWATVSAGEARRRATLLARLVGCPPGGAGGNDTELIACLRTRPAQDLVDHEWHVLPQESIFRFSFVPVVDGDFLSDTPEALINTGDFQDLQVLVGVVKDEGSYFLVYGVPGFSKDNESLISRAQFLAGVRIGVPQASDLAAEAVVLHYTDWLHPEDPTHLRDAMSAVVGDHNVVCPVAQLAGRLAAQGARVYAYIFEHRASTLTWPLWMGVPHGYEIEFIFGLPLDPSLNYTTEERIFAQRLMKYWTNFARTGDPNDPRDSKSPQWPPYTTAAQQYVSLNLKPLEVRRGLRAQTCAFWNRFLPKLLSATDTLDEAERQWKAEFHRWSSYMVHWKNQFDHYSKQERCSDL
Experimental: as §1

hMAO-B = target: T2, hMAO-B (Homo sapiens, UniProt P27338); experiment: biochemical; conditions: for IC50: IC50 ± SEM
T2 construct: purchased Sigma Aldrich; host or cells: BTI-TN-5B1-4 baculovirus-infected insect cells
T2 sequence (P27338 1-520): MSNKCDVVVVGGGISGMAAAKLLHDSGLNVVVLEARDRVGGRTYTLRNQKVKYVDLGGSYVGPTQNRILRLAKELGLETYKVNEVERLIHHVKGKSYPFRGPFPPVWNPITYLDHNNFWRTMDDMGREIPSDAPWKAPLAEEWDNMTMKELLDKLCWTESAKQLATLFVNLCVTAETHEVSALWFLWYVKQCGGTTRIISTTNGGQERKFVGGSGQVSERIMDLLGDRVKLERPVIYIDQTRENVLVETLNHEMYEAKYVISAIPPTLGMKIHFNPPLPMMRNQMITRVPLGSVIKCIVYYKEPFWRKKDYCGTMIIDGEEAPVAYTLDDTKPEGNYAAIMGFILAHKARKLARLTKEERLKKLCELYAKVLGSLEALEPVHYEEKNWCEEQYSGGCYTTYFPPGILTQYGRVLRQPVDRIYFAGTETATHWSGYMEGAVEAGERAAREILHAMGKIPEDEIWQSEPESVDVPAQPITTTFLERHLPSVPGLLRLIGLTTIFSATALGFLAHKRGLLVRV
Excerpt: The effects of the compounds on hMAO-A and hMAO-B were investigated using a fluorimetric assay, following a method previously described in the literature. Recombinant human microsomal hMAO enzymes expressed in BTI-TN-5B1-4 baculovirus-infected insect cells, horseradish peroxidase (HRP, type II, lyophilized powder), and p-tyramine hydrochloride were purchased from Sigma Aldrich. 10-Acetyl-3,7-dihydroxyphenoxazine (Amplex Red reagent) was synthesized as described in the literature.
After preincubation, the reaction was started by adding final concentrations of 200 µM Amplex Red reagent, 2 U/mL HRP, and 1 mM p-tyramine hydrochloride. Resorufin production was quantified based on the fluorescence produced (λex = 530 nm; λem = 590 nm) at 37 °C over a 20 min period. For the control experiments, DMSO was used instead of appropriate dilutions of the compounds in DMSO. For the determination of blank (b), the enzyme solution was replaced by a phosphate-buffered solution. Initial velocities were calculated from the obtained trend, with each measurement performed in duplicate. Specific fluorescence emission to determine the final results was calculated after subtracting the blank activity (b). Inhibitory potencies were expressed as RAs, and IC50 values were calculated as described in the section “Inhibition of hBChE and mAChE” above.

[3] = residual activity at 10 µM; Table 4; read-out: hBChE RA (%)
[4] = residual activity at 10 µM, Mini Library screen, Table S1, read-out: hMAO-B (RA [%])
[5] = residual activity at 10 µM; Mini Library screen, Table S1
[6] = residual activity at 10 µM, Table 3, read-out: hMAO-B RA (%)
[7] = residual activity at 10 µM; Table 1; read-out: hBChE RA (%)

Sequence of MurA (P0A749 whole entry): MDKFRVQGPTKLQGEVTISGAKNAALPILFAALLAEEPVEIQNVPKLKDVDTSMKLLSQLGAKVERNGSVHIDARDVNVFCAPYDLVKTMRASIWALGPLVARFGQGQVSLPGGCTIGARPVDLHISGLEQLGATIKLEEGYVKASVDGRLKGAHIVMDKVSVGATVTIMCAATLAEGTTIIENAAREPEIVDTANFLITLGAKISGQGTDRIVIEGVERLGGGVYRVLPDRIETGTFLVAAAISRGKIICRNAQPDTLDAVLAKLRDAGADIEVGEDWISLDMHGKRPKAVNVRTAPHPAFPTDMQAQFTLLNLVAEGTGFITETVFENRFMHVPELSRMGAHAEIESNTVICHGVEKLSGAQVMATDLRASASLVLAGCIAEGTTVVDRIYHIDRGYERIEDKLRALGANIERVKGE
Sequence of human butyrylcholinesterase (hBChE) (P06276 29-602): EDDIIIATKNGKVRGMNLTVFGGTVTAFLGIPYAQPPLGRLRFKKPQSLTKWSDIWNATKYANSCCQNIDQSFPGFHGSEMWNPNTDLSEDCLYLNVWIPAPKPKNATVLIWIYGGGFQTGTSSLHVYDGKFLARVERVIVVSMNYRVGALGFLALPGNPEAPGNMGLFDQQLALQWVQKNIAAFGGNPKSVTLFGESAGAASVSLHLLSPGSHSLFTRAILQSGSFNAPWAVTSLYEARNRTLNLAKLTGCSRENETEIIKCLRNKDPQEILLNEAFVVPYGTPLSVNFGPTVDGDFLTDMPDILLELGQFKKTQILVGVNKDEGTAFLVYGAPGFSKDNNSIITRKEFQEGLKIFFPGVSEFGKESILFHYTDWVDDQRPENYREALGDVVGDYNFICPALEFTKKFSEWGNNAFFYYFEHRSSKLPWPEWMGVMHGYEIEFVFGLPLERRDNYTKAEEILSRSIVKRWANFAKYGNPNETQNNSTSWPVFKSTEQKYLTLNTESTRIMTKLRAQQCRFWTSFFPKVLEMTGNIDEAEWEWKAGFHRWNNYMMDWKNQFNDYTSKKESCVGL

Row | SMILES | remaining activity at 50 µM (MurA) [%] | IC50 ([1]; Table 4; IC50 ± SEM; read-out: hBChE IC50) [nM] | remaining activity at 10 µM [1, 3] [%] | mAChE RA (%) ([2]; Mini Library screen, Table S1) | remaining activity at 10 µM ([2]; Table 4) [%] | remaining activity at 10 µM (hMAO-B; [4]) [%] | hBChE RA (%) [1, 5] [%] | IC50 (hMAO-B; Table 3) [nM] | remaining activity at 10 µM (hMAO-B; [6]) [%] | hMAO-B RA [%] (hMAO-B; residual activity at 10 µM, Table S3) | IC50 ([1]; read-out: hBChE IC50; Table 4; IC50 ± SEM) [nM] | IC50 (MurA) [nM] | RA (MurA, 50 µM) (MurA) [%] | MurA RA (%) (MurA) | remaining activity at 10 µM [1, 7] [%] | IC50 ([2]; Mini Library screen, Table S1) [nM] | IC50 ([2]; Table 1, IC50 ± SEM) [nM] | RA (mAChE, 10 µM) [2] [%] | remaining activity at 10 µM ([2]; Table 1) [%] | IC50 ([1]; Table 1; IC50 ± SEM; read-out: hBChE IC50) [nM]
1 | C1=C(c2ccccc2)CCN(CCCCc2c[nH]c3ccccc23)C1 [MS-ML10] | 110 | 35.6 ± 0.3 | 0 | 64 | 64 | 82 |  |  |  |  |  |  |  |  |  |  |  |  |  | 
2 | O=C(Nc1ccc(Oc2ccncc2)cc1)Nc1cc(C(F)(F)F)ccc1-n1cncn1 [MS-ML80] | 93 |  |  | 95 |  | 11 | 73 | 405 ± 76 | 10 |  |  |  |  |  |  |  |  |  |  | 
3 | O=C(OC[C@H]1CCCN1c1ccnc2ncnn12)c1ccc(Oc2ccccc2)nc1 [MS-ML31] | 94 |  |  | 89 |  | 13 | 84 | 912 ± 122 | 17 | 17 |  |  |  |  |  |  |  |  |  | 
4 | Oc1ccc2[nH]cc(CCCCN3CC=C(c4ccccc4)CC3)c2c1 [MS-ML11] | 100 |  | 0 | 82 | 82 | 45 |  |  |  |  | 78.8 ± 10.3 |  |  |  |  |  |  |  |  | 
5 | CCCCCCN(Cc1ccc(C#Cc2ccc(CCCC)cc2)cc1)c1ccc(F)c(C(=O)O)c1 [MS-ML26] | 7 |  |  |  |  | 92 | 68 |  |  |  |  | 7000 ± 4000 | 7 | 0 | 57 | 359 ± 39 | 275 ± 60 | 8 | 8 | 
6 | CCCCCCN(Cc1ccc(C#Cc2ccc(CCCC)cc2)cc1)C(=O)c1ccc(O)c(C(=O)O)c1 [MS-ML25] | 0 |  |  |  |  | 77 | 108 |  |  |  |  | 6000 ± 2000 | 0 | 0 | 55 | 369 ± 55 | 485 ± 79 | 3 | 3 | 
7 | CCCCc1nc2ccn(Cc3ccccc3)c(=O)c2n1Cc1ccc(-c2ccccc2-c2nnn[nH]2)cc1 [MS-ML03] | 100 |  |  | 92 |  | 97 | 87 |  |  |  |  |  |  |  |  |  |  |  |  | 
8 | CCCCCCN(Cc1ccc(C#Cc2ccc(CCCC)cc2)cc1)c1ccc(O)c(C(=O)O)c1 [MS-ML24] | 15 |  |  |  |  | 64 | 60 |  |  |  |  | 7000 ± 3000 | 15 | 0 | 9 | 414 ± 40 | 294 ± 25 | 1 | 1 | 949 ± 46
9 | CCCCc1nc2ccn(CC(=O)N3CCCCC3)c(=O)c2n1Cc1ccc(-c2ccccc2S(=O)(=O)NC(=O)OCc2ccccc2)cc1F [MS-ML05] | 90 |  |  | 96 |  | 93 | 91 |  |  |  |  |  |  |  |  |  |  |  |  | 
